Measurements from patent US9670204B2, “Compounds and pharmaceutical compositions thereof for the treatment of inflammatory disorders” (Galapagos NV, priority 2013, dated 2017).

target: hENPP2 (UniProtKB/SwissProt Q13822) (Homo sapiens (Human), UniProt Q13822); test: hENPP2 biochemical assay, LPC as substrate; details: LPC (palmitoyl 16:0) as substrate
Description: The principle of the assay consists in quantifying the released choline with an enzymatic method using choline oxidase and peroxidase. Choline oxydation by choline oxydase releases betaine and peroxide. The latter is quantified in presence of HRP that converts the peroxide detection agent TOOS and 4-aminoantipyrine into quinoneimine dye. The appearance of quinoneimine dye is measured spectrophotometrically at 555 nm and is proportional to the amount of choline released by ENPP2. Inhibition of ENPP2 will result in a decrease of the signal.
Compound IC50 values are determined in a hENPP2 (UniProtKB/SwissProt Sequence ref Q13822) biochemical assay using LPC as substrate.
The enzyme is diluted in 50 mM Tris-HCl pH 8.5, 500 mM NaCl, 5 mM KCl, 10 mM CaCl2, 0.1% fatty acid free BSA in a total volume of 10 μL. the reaction is started by the addition of 10 μL of 150 μM LPC (palmitoyl 16:0) diluted in the same buffer as described above and the mixture is incubated at 37° C. for 30 min. The reaction is terminated and choline quantified by the addition of a 25 μL of a mixture containing 0.6 U/mL of choline oxidase, 0.6 U/mL of peroxydase, 1.8 mM TOOS, 1.2 mM amino-antipyrine, 20 mM EGTA (stop-developer solution) diluted in the buffer described above. […] is read on the Envision after an incubation of 30 min at room temperature (Excitation 555 nm, excitation light=70%).

IC50	SMILES
100 to 500 nM	CCc1nc2ccc(N3CCN(CC(=O)N4CC(F)C4)CC3)cn2c1N(C)c1nc(-c2ccc(F)cc2)cs1 [Compound 28, 2-(4-(2-ethyl-3-((4-(4-fluorophenyl)thiazol-2-yl)(methyl)amino)imidazo[1,2-a]pyridin-6-yl)piperazin-1-yl)-1-(3-fluoroazetidin-1-yl)ethanone]
100 to 500 nM	CCc1nc2ccc(N3CCN(CC(=O)N4CC(F)(F)C4)CC3)cn2c1N(C)c1nc(-c2ccc(F)cc2)cs1 [Compound 29, 1-(3,3-difluoroazetidin-1-yl)-2-(4-(2-ethyl-3-((4-(4-fluorophenyl)thiazol-2-yl)(methyl)amino)-imidazo[1,2-a]pyridin-6-yl)piperazin-1-yl)ethanone]
0.01 to 100 nM	CCc1nc2ccc(N3CCN(CC(=O)N4CCC4)CC3)cn2c1N(C)c1nc(-c2ccc(F)cc2)cs1 [Compound 30, 1-(azetidin-1-yl)-2-(4-(2-ethyl-3-((4-(4-fluorophenyl)thiazol-2-yl)(methyl)amino)imidazo[1,2-a]pyridin-6 yl)piperazin-1-yl)ethanone]
0.01 to 100 nM	CCc1nc2ccc(N3CCN(CC(=O)N4CCCC4)CC3)cn2c1N(C)c1nc(-c2ccc(F)cc2)cs1 [Compound 31, 2-(4-(2-ethyl-3-((4-(4-fluorophenyl)thiazol-2-yl)(methyl)amino)imidazo[1,2-a]pyridin-6-yl)piperazin-1-yl)-1-(pyrrolidin-1-yl)ethanone]
100 to 500 nM	CCc1nc2ccc(N3CCN(CC(=O)N4CCOCC4)CC3)cn2c1N(C)c1nc(-c2ccc(F)cc2)cs1 [Compound 32, 2-(4-(2-ethyl-3-((4-(4-fluorophenyl)thiazol-2-yl)(methyl)amino)imidazo[1,2-a]pyridin-6-yl)piperazin-1-yl)-1-morpholinoethanone]
500 to 1000 nM	CCc1nc2ccc(N3CCN(CC(N)=O)CC3)cn2c1N(C)c1nc(-c2ccc(F)cc2)cs1 [Compound 33, 2-(4-(2-ethyl-3-((4-(4-fluorophenyl)thiazol-2-yl)(methyl)amino)imidazo[1,2-a]pyridin-6-yl)piperazin-1-yl)acetamide]
100 to 500 nM	CCc1nc2ccc(N3CCN(CC(=O)N4CC(CO)C4)CC3)cn2c1N(C)c1nc(-c2ccc(F)cc2)cs1 [Compound 34, 2-(4-(2-ethyl-3-((4-(4-fluorophenyl)thiazol-2-yl)(methyl)amino)imidazo[1,2-a]pyridin-6-yl)piperazin-1-yl)-1-(3-(hydroxymethyl)azetidin-1-yl)ethanone]
> 1000 nM	CCOC(=O)C(C)N1CCN(c2ccc3nc(CC)c(N(C)c4nc(-c5ccc(F)cc5)cs4)n3c2)CC1 (centres unmarked) [Compound 37, ethyl 2-(4-(2-ethyl-3-((4-(4-fluorophenyl)thiazol-2-yl)(methyl)amino)imidazo[1,2-a]pyridin-6-yl)piperazin-1-yl)propionoate]
> 1000 nM	CCc1nc2ccc(N3CCN(C(=O)C4CCCN4C(=O)OC(C)(C)C)CC3)cn2c1N(C)c1nc(-c2ccc(F)cc2)cs1 (centres unmarked) [Compound 44, tert-butyl 2-(4-(2-ethyl-3-((4-(4-fluorophenyl)thiazol-2-yl)(methyl)amino)imidazo[1,2-a]pyridin-6-yl)piperazine-1-carbonyl)pyrrolidine-1-carboxylate]
> 1000 nM	CCc1nc2ccc(N3CCN(C(=O)C4CCN(C(=O)OC(C)(C)C)C4)CC3)cn2c1N(C)c1nc(-c2ccc(F)cc2)cs1 (centres unmarked) [Compound 45, tert-butyl 3-(4-(2-ethyl-3-((4-(4-fluorophenyl)thiazol-2-yl)(methyl)amino)imidazo[1,2-a]pyridin-6-yl)piperazine-1-carbonyl)pyrrolidine-1-carboxylate]
> 1000 nM	CCc1nc2ccc(C3=CCN(S(C)(=O)=O)CC3)cn2c1N(C)c1nc(-c2ccc(C(C)(C)C)cc2)cs1 [Compound 70, 4-(4-tert-butylphenyl)-N-(2-ethyl-6-(1-(methylsulfonyl)-1,2,3,6-tetrahydropyridin-4-yl)imidazo[1,2-a]pyridin-3-yl)-N-methylthiazol-2-amine]
> 1000 nM	CCc1nc2ccc(C3=CCN(S(C)(=O)=O)CC3)cn2c1N(C)c1nc(-c2ccc(OC)cc2)cs1 [Compound 71, N-(2-ethyl-6-(1-(methylsulfonyl)-1,2,3,6-tetrahydropyridin-4-yl)imidazo[1,2-a]pyridin-3-yl)-4-(4-methoxyphenyl)-N-methylthiazol-2-amine]
> 1000 nM	CCc1nc2ccc(C3=CCN(S(C)(=O)=O)CC3)cn2c1N(C)c1nc(-c2ccc(F)c(F)c2)cs1 [Compound 73, 4-(3,4-difluorophenyl)-N-(2-ethyl-6-(1-(methylsulfonyl)-1,2,3,6-tetrahydropyridin-4-yl)imidazo[1,2-a]pyridin-3-yl)-N-methylthiazol-2-amine]
> 1000 nM	CCc1nc2ccc(C3CCN(S(C)(=O)=O)CC3)cn2c1N(C)c1nc(-c2ccc(F)c(F)c2)cs1 [Compound 83, 4-(3,4-difluorophenyl)-N-(2-ethyl-6-(1-(methylsulfonyl)piperidin-4-yl)imidazo [1,2-a]pyridin-3-yl)-N-methylthiazol-2-amine]
> 1000 nM	CCc1nc2ccc(C3CCN(S(C)(=O)=O)CC3)cn2c1N(C)c1nc(-c2ccc(C(F)(F)F)cc2)cs1 [Compound 84, N-(2-ethyl-6-(1-(methylsulfonyl)piperidin-4-yl)imidazo [1,2-a]pyridin-3-yl)-N-methyl-4-(4-(trifluoromethyl)phenyl) thiazol-2-amine]
> 1000 nM	CCc1nc2ccc(C3CCN(S(C)(=O)=O)CC3)cn2c1N(C)c1nc(-c2ccc(OC(F)(F)F)cc2)cs1 [Compound 85, N-(2-ethyl-6-(1-(methylsulfonyl)piperidin-4-yl)imidazo [1,2-a]pyridin-3-yl)-N-methyl-4-(4-(trifluoromethoxy)phenyl)thiazol-2-amine]
100 to 500 nM	CCc1nc2ccc(C3CCN(S(C)(=O)=O)CC3)cn2c1N(C)c1nc(-c2ccc(F)cc2C#N)c(C)s1 [Compound 97, 2-(2-((2-ethyl-6-(1-(methylsulfonyl)piperidin-4-yl)imidazo [1,2-a]pyridin-3-yl)(methyl)amino)-5-methylthiazol-4-yl)-5-fluorobenzonitrile]
> 1000 nM	[2H]C([2H])([2H])N(c1nc(-c2ccc(F)cc2)cs1)c1c(CC)nc2ccc(C3CCN(S(C)(=O)=O)CC3)cn12 [Compound 102, 4-(4-fluorophenyl)-N-(2-ethyl-6-(1-(methylsulfonyl)piperidin-4-yl)imidazo [1,2-a]pyridin-3-yl)-N-(d3-methyl)thiazol-2-amine]
> 1000 nM	CCc1nc2ccc(C3CCN(S(C)(=O)=O)CC3)cn2c1N(C)c1nc(-c2ccc(F)cc2)c(C(=O)OC)s1 [Compound 104, methyl 2-((2-ethyl-6-(1-(methylsulfonyl)piperidin-4-yl)imidazo [1,2-a]pyridin-3-yl)(methyl)amino)-4-(4-fluorophenyl)thiazole-5-carboxylate]
500 to 1000 nM	CCc1nc2ccc(C3CCN(S(C)(=O)=O)CC3)cn2c1N(C)c1nc(-c2ccc(F)cc2CO)cs1 [Compound 107, (2-(2-((2-ethyl-6-(1-(methylsulfonyl)piperidin-4-yl)imidazo[1,2-a]pyridin-3-yl)(methyl)amino)thiazol-4-yl)-5-fluorophenyl)methanol]
100 to 500 nM	CCc1nc2ccc(C3CCN(CC(=O)N4CCC(CO)C4)CC3)cn2c1N(C)c1nc(-c2ccc(F)cc2)cs1 (centres unmarked) [Compound 117, 2-(4-(2-ethyl-3-((4-(4-fluorophenyl)thiazol-2-yl)(methyl)amino)imidazo[1,2-a]pyridin-6-yl)piperidin-1-yl)-1-(3-(hydroxymethyl)pyrrolidin-1-yl)ethanone]
500 to 1000 nM	CCc1nc2ccc(C3CCN(CC(=O)N(C)CCO)CC3)cn2c1N(C)c1nc(-c2ccc(F)cc2)cs1 [Compound 119, 2-(4-(2-ethyl-3-((4-(4-fluorophenyl)thiazol-2-yl)(methyl)amino)imidazo[1,2-a]pyridin-6-yl)piperidin-1-yl)-N-(2-hydroxyethyl)-N-methylacetamide]
500 to 1000 nM	CCc1nc2ccc(C3CCN(CC(=O)N(C)CC#N)CC3)cn2c1N(C)c1nc(-c2ccc(F)cc2)cs1 [Compound 121, N-(cyanomethyl)-2-(4-(2-ethyl-3-((4-(4-fluorophenyl)thiazol-2-yl)(methyl)amino)imidazo[1,2-a]pyridin-6-yl)piperidin-1-yl)-N-methylacetamide]
500 to 1000 nM	CCc1nc2ccc(C3CCN(CC4CNC(=O)O4)CC3)cn2c1N(C)c1nc(-c2ccc(F)cc2)cs1 (centres unmarked) [Compound 122, 5-((4-(2-ethyl-3-((4-(4-fluorophenyl)thiazol-2-yl)(methyl)amino)imidazo[1,2-a]pyridin-6-yl)piperidin-1-yl)methyl)oxazolidin-2-one]
> 1000 nM	CCc1nc2ccc(C3CCN(CC(=O)NCCCO)CC3)cn2c1N(C)c1nc(-c2ccc(F)cc2)cs1 [Compound 123, 2-(4-(2-ethyl-3-((4-(4-fluorophenyl)thiazol-2-yl)(methyl)amino)imidazo[1,2-a]pyridin-6-yl)piperidin-1-yl)-N-(3-hydroxypropyl)acetamide]
500 to 1000 nM	CCc1nc2ccc(C3CCN(C(=O)CNC)CC3)cn2c1N(C)c1nc(-c2ccc(F)cc2)cs1 [Compound 127, 1-(4-(2-ethyl-3-((4-(4-fluorophenyl)thiazol-2-yl)(methyl)amino)imidazo[1,2-a]pyridin-6-yl)piperidin-1-yl)-2-(methylamino)ethanone]
